Publication PMC11243693, “Synthesis and Biological Evaluation of New Compounds with Nitroimidazole Moiety” (Molecules, 2024)
Converted amounts (≈) assume the structure as drawn.

Assays:
HaCaT cells = experiment: MTT assay, HaCaT normal cells; type: cell-based; conditions: HaCaT human immortal keratinocyte (normal cells), 24 h, mean SD
Description: (§1) Colon cancer (SW480), breast adenocarcinoma (MDA-MB-231), lung carcinoma (A-549), prostate cancer (PC3), and immortal keratinocyte (HaCaT) cell lines of human origin were acquired from the American Type Culture Collection (ATCC). The recommended culture media and protocols provided by ATCC were as follows: SW480 were cultured in Minimum Essential Medium (MEM), MDA-MB-231, A-549, and HaCaT cells were cultured in Dulbecco’s Modified Eagle Medium (DMEM), while PC3 was cultured in Roswell Park Memorial Institute Medium (RPMI). The culture media were supplemented with 10% fetal bovine serum (FBS), penicillin (100 U/mL), and streptomycin (100 μg/mL). Cells were maintained in a humidified incubator at 37 °C with 5% CO2. Passaging was carried out upon reaching 80–90% confluence using 0.25% trypsin (Gibco Life Technologies, New York, NY, USA) treatment prior to experimentation.
(§2) Cell viability was assessed utilizing the MTT assay, which relies on the conversion of 3-(4,5-dimethylthiazol-2-yl)-2,5-diphenyltetrazolium bromide salt (MTT) to formazan crystals by mitochondrial dehydrogenases in viable cells. Initially, cells were plated in 96-well plates at a density of 1 × 10^4 cells per well and allowed to attach for 24 h at 37 °C in a CO2 incubator. Subsequently, the culture medium was replaced with fresh medium containing various concentrations of the test compounds (ranging from 1 to 100 μM), and cells were further cultured for 24 h at 37 °C in a CO2 incubator. Control wells were left untreated for comparison. After the incubation period, MTT solution (0.5 mg/mL in serum-free medium) was added to each well, followed by a 4-h incubation at 37 °C in a CO2 incubator. The medium was then aspirated, and the formazan crystals were dissolved by adding a mixture of isopropanol and DMSO (1:1). The absorbance of the resulting solution was measured at 570 nm using a UVM 340 reader (ASYS Hitech GmbH, Seekirchen am Wallersee, Austria). IC50 values were determined using GraphPad software (GraphPad Prism 8 Software).

SW620 cells = experiment: MTT assay, SW620 cells; type: cell-based, human
A-549 cells = experiment: MTT assay, A-549 cells; type: cell-based, human
Description: as §1, §2

PC3 cells = experiment: MTT assay, PC3 cells; type: cell-based, human
Description: as §1, §2

MDA-MB-231 cells = experiment: MTT assay, MDA-MB-231 cells; type: cell-based, human
Description: as §1, §2

[1] = tested on: Staphylococcus epidermidis ATCC 12228; experiment: Broth microdilution, S. epidermidis ATCC 12228; type: cell-based; conditions: Staphylococcus epidermidis, ATCC12228
In short: (§3)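 MIC: A570 after 18 ± 2 h, 35 ± 2 °C. Medium: MH broth (bacterium) or MH + 2% glucose (yeasts). Serial 2-fold dilutions of compound, top solution 1000 µg/mL. Inoculum: 0.5 McFarland suspension diluted 10×. MBC/MFC: subculture onto MHA or MHA + 2% glc, 99.9% growth inhibition.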

[2] = tested on: Bacillus cereus ATCC 10876; experiment: Broth microdilution, B. cereus ATCC 10876; type: cell-based
In short: (§4)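 EUCAST broth microdilution: inoculum 0.5 McFarland, 10-fold diluted; Mueller-Hinton broth (bacteria) or MH + 2% glucose (yeast); twofold dilutions from 1000 µg/mL; 18 ± 2 h at 35 ± 2 °C, A570 read for MIC. MBC/MFC from subculture on MHA or MHA + 2% glc (99.9% kill).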

[3] = tested on: Micrococcus luteus ATCC 10240; experiment: Broth microdilution, M. luteus ATCC 10240; type: cell-based
In short: as §3

[4] = tested on: Candida tropicalis ATCC 1369; experiment: Broth microdilution, C. tropicalis ATCC 1369; type: cell-based; conditions: Candida tropicalis, ATCC1369
In short: as §4

[5] = tested on: Candida parapsilosis ATCC 22019; experiment: Broth microdilution, C. parapsilosis ATCC 22019; type: cell-based; conditions: Lodderomyces parapsilosis, ATCC22019
In short: as §4

[6] = tested on: Candida lusitaniae ATCC 3449; experiment: Broth microdilution, C. lusitaniae ATCC 3449; type: cell-based; conditions: Clavispora lusitaniae, ATCC3449
In short: as §4

[7] = tested on: Candida glabrata ATCC 15126; experiment: Broth microdilution, C. glabrata ATCC 15126; type: cell-based; conditions: Nakaseomyces glabratus, ATCC15126
In short: as §4

[8] = tested on: Candida krusei ATCC 14243; experiment: Broth microdilution, C. krusei ATCC 14243; type: cell-based; conditions: Pichia kudriavzevii, ATCC14243
In short: as §4

[9] = tested on: Candida glabrata ATCC 90030; experiment: Broth microdilution, C. glabrata ATCC 90030; type: cell-based; conditions: Nakaseomyces glabratus, ATCC90030
In short: as §4

Gram-positive bacteria = experiment: Broth microdilution, Gram-positive bacteria; type: cell-based; conditions: strains as named in the sentence
Description: The antibacterial activity of the obtained thiosemicarbazides and hydrazide–hydrazones was determined by evaluating their ability to inhibit microbial growth in vitro using the broth microdilution method, according to the guidelines of the European Committee on Antimicrobial Susceptibility Testing (EUCAST). The method involved the preparation of microbial suspensions with a standardized density of 0.5 on the McFarland scale (equivalent to 1.5 × 10^8 colony-forming units/mL for bacteria and […] for fungi). A solution of the test substances was then prepared (initial concentration 1000 µg/mL, diluted in sterile Mueller-Hinton broth for bacteria or Mueller-Hinton with 2% glucose for fungi). The test was carried out in 96-well polystyrene flat-bottom plates (Medlab, Poland) with 100 µL of appropriate sterile microbiological medium in each well. […] After incubation, the spectrophotometric absorbance at 570 nm in each well of the plate was read. […] The MBC value was determined by adding 5 µL of the contents of each well of the plate to solid sterile MHA or MHA + 2%glc medium for bacteria and fungi, respectively. […] In addition, the quotient MBC(MFC)/MIC could be determined to assess the nature of the activity of the test substance. […]

Candida auris CDC B11903 = experiment: Broth microdilution, C. auris CDC B11903; type: cell-based; conditions: Candidozyma auris, CDCB11903
In short: as §4

[10] = tested on: Staphylococcus aureus ATCC 43300 methicillin-resistant MRSA; experiment: Broth microdilution, S. aureus ATCC 43300 MRSA; type: cell-based; conditions: Staphylococcus aureus
In short: as §3

[11] = tested on: Staphylococcus aureus ATCC 6538; experiment: Broth microdilution, S. aureus ATCC 6538; type: cell-based; conditions: Staphylococcus aureus, ATCC6538
In short: as §4

[12] = tested on: Staphylococcus aureus ATCC 25923; experiment: Broth microdilution, S. aureus ATCC 25923; type: cell-based; conditions: Staphylococcus aureus, ATCC25923
In short: as §3

[13] = tested on: Bacillus subtilis ATCC 6633; experiment: Broth microdilution, B. subtilis ATCC 6633; type: cell-based
In short: as §3

For COc1cccc2c1C(=O)c1c(O)c3c(c(O)c1C2=O)C[C@@](O)(C(=O)CO)C[C@@H]3O[C@H]1C[C@H](N)[C@H](O)[C@H](C)O1 [Doxo-rubicin, doxorubicin], the IC50 (HaCaT cells) was 300 ± 100 nM, the “SI (Selectivity Index)” value (SW620 cells; IC50 for normal cell line (HaCaT)/IC50 SW620) was 1.0 and the IC50 (SW620 cells; SW-620, SW620 human metastatic colon cancer, MTT, 24 h, mean SD) was 300 ± 100 nM. The IC50 (A-549 cells; A549, A-549 human lung carcinoma, MTT, 24 h, mean SD) was 200 ± 90 nM, the “SI (Selectivity Index)” value (A-549 cells; IC50 for normal cell line (HaCaT)/IC50 A-549) was 1.5 and the “SI (Selectivity Index)” value (PC3 cells; IC50 for normal cell line (HaCaT)/IC50 PC3) was 1. For the same compound, the IC50 (PC3 cells; PC-3, PC3 human metastatic prostate cancer, MTT, 24 h, mean SD) was 300 ± 100 nM, the “SI (Selectivity Index)” value (MDA-MB-231 cells; IC50 for normal cell line (HaCaT)/IC50 MDA-MB-231) was 0.19 and the IC50 (MDA-MB-231 cells; MDA-MB-231 human breast adenocarcinoma, MTT, 24 h, mean SD) was 1600 ± 230 nM.
Cn1cc([N+](=O)[O-])nc1C(=O)NNC(=S)Nc1ccc([N+](=O)[O-])cc1 [Compound 18, 1-[(1-methyl-4-nitroimidazol-2-yl)carbonyl]-4-(4-nitrophenyl)-thiosemicarbazide] gave an MBC [1] greater than 1000 µg/mL, an MIC [1] of 1000 µg/mL (≈ 2740 µM) and an MBC ([2]; Bacillus cereus, ATCC10876) of 1000 µg/mL (≈ 2740 µM). For the same compound, the MIC ([2]; Bacillus cereus, ATCC10876) was 1000 µg/mL (≈ 2740 µM), the “MBC/MIC Ratio” value ([2]; Bc 10876, <4 bactericidal, ≥4 bacteriostatic) was 1 and the MBC ([3]; Micrococcus luteus, ATCC10240) was 1000 µg/mL (≈ 2740 µM). For the same compound, the MIC ([3]; Micrococcus luteus, ATCC10240) was 500 µg/mL (≈ 1370 µM), the “MBC/MIC Ratio” value ([3]; Ml 10240, <4 bactericidal, ≥4 bacteriostatic) was 2 and the MFC [4] was greater than 1000 µg/mL. It also gave an MIC [4] of 500 µg/mL (≈ 1370 µM), an MIC [5] greater than 1000 µg/mL and an MIC [6] greater than 1000 µg/mL. The MIC [7] was greater than 1000 µg/mL, the MIC [8] was greater than 1000 µg/mL and the MIC [9] was greater than 1000 µg/mL. The “MIC (range or value for several Gram-positive strains)” value (Gram-positive bacteria) was 500 to 1000 µg/mL, the MIC (Candida auris CDC B11903) was greater than 1000 µg/mL and the MIC [10] was greater than 1000 µg/mL. It also gave an MIC [11] greater than 1000 µg/mL, an MBC [12] greater than 1000 µg/mL and an MIC [12] of 500 µg/mL (≈ 1370 µM). For the same compound, the MBC ([13]; Bacillus subtilis, ATCC6633) was 1000 µg/mL (≈ 2740 µM), the MIC ([13]; Bacillus subtilis, ATCC6633) was 1000 µg/mL (≈ 2740 µM) and the “MBC/MIC Ratio” value ([13]; Bs 6633, <4 bactericidal, ≥4 bacteriostatic) was 1.
